Source: patent publication US3960877A, “N-monosubstituted-2,3-pyridinedicarboxamides, and related compounds” (priority 1974, dated 1976)

Columns and labels:
Format in all cases: in vivo
[1] = tested on: Crabgrass; experiment: Preemergence herbicidal activity, % control of plant growth; settings: Digitaria sanguinalis, pre-emergence, 504 h, 16 lb/acre, about 3 weeks
Description: (§1) By "preemergence" is meant that the compound is applied to the soil prior to emergence of the weed species sought to be controlled. This term, as used herein, also means the application of the herbicidal compounds falling within the scope of this disclosure to areas wherein useful or desirable plants are either growing or have been sown, but where the undesirable plants sought to be controlled have not as yet emerged.
(§2) In using the compound, seeds of the types of plants set forth in Table II were sown in fresh soil. In the preemergence test the soil was sprayed with a solution of the test compound immediately after the seeds were planted, and before any noticeable growth developed. The solution was about a 2 percent by weight solution of the compound in acetone and/or alcohol. The compound was applied at the rate of 16 pounds per acre of soil surface.
(§3) Approximately 3 weeks after spray application, the herbicidal activity of the compound was determined by visual observation of the treated area in comparison with untreated control areas. These observations are reported below in Table II wherein the average activity rating is reported as the percent control of plant growth.
(§4) *Preemergence test: compound applied at rate of 16 lb/acre

[2] = tested on: Johnsongrass; experiment: as above; settings: Sorghum halepense, pre-emergence, 504 h, 16 lb/acre, about 3 weeks
Description: as §1, §2, §3, §4

[3] = tested on: Wild Oats; experiment: as above; settings: Avena fatua, pre-emergence, 504 h, 16 lb/acre, about 3 weeks
Description: as §1, §2, §3, §4

[4] = tested on: Curled Dock; experiment: as above; settings: pre-emergence, 504 h, 16 lb/acre, about 3 weeks
Description: as §1, §2, §3, §4

[5] = tested on: Cucumber; experiment: as above; settings: Cucumis sativus, pre-emergence, 504 h, 16 lb/acre, about 3 weeks
Description: as §1, §2, §3, §4

[6] = tested on: Lambsquarters; experiment: as above; settings: Chenopodium album, pre-emergence, 504 h, 16 lb/acre, about 3 weeks
Description: as §1, §2, §3, §4

[7] = tested on: Cheatgrass; experiment: as above; settings: Bromus tectorum, pre-emergence, 504 h, 16 lb/acre, about 3 weeks
Description: as §1, §2, §3, §4

[8] = tested on: Nutgrass; experiment: as above; settings: pre-emergence, 504 h, 16 lb/acre, about 3 weeks
Description: as §1, §2, §3, §4

[9] = tested on: Chickweed; experiment: as above; settings: pre-emergence, 504 h, 16 lb/acre, about 3 weeks
Description: as §1, §2, §3, §4

[10] = tested on: Velvetleaf; experiment: as above; settings: Abutilon theophrasti, pre-emergence, 504 h, 16 lb/acre, about 3 weeks
Description: as §1, §2, §3, §4

[11] = tested on: Barnyard Grass; experiment: as above; settings: Echinochloa crus-galli, pre-emergence, 504 h; barnyard grass; 16 lb/acre; about 3 weeks
Description: as §1, §2, §3, §4

[12] = tested on: Corn; experiment: as above; settings: Zea mays, pre-emergence, 504 h, 16 lb/acre, about 3 weeks
Description: as §1, §2, §3, §4

[13] = tested on: Yellow Rocket; experiment: as above; settings: pre-emergence, 504 h, 16 lb/acre, about 3 weeks
Description: as §1, §2, §3, §4

[14] = tested on: Pigweed; experiment: as above; settings: Amaranthus retroflexus, pre-emergence, 504 h, 16 lb/acre, about 3 weeks
Description: as §1, §2, §3, §4

[15] = tested on: Foxtail; experiment: as above; settings: Setaria, pre-emergence, 504 h, 16 lb/acre, about 3 weeks
Description: as §1, §2, §3, §4

[16] = tested on: Snapbeans; experiment: as above; settings: pre-emergence, 504 h, 16 lb/acre, about 3 weeks
Description: as §1, §2, §3, §4

[17] = tested on: Alfalfa; experiment: as above; settings: Medicago sativa, pre-emergence, 504 h, 16 lb/acre, about 3 weeks
Description: as §1, §2, §3, §4

[18] = tested on: Crabgrass; experiment: Postemergence herbicidal activity, % control of plant growth; settings: Digitaria sanguinalis, post-emergence, 264 h, 8 lb/acre, about 11 days
Description: (§5) By the term "postemergence" is meant that the compound is applied to the plant sought to be controlled after it has emerged from the soil surface. This term is also used to describe the application of herbicidally active compounds to soil surface in and around growing plants sought to be controlled for purposes of effecting root absorption by the undesirable plant species.
(§6) In the postemergence test the soil and developing plants were sprayed approximately 2 weeks after the seeds were sown. The compound was applied at the rate of 8 pounds per acre from about a 2 percent by weight solution of the test compound in acetone and/or alcohol. The postemergence herbicidal activity was measured in the same way as the preemergence activity; i.e. visual observation approximately 11 days after spraying, and expressed as the percent control of plant growth.
(§7) **Postemergence test: compound applied at rate of 8 lb/acre

[19] = tested on: Johnsongrass; experiment: as above; settings: Sorghum halepense, post-emergence, 264 h, 8 lb/acre, about 11 days
Description: as §5, §6, §7

[20] = tested on: Wild Oats; experiment: as above; settings: Avena fatua, post-emergence, 264 h, 8 lb/acre, about 11 days
Description: as §5, §6, §7

[21] = tested on: Curled Dock; experiment: as above; settings: post-emergence, 264 h, 8 lb/acre, about 11 days
Description: as §5, §6, §7

[22] = tested on: Cucumber; experiment: as above; settings: Cucumis sativus, post-emergence, 264 h, 8 lb/acre, about 11 days
Description: as §5, §6, §7

[23] = tested on: Lambsquarters; experiment: as above; settings: Chenopodium album, post-emergence, 264 h, 8 lb/acre, about 11 days
Description: as §5, §6, §7

[24] = tested on: Cheatgrass; experiment: as above; settings: Bromus tectorum, post-emergence, 264 h, 8 lb/acre, about 11 days
Description: as §5, §6, §7

[25] = tested on: Nutgrass; experiment: as above; settings: post-emergence, 264 h, 8 lb/acre, about 11 days
Description: as §5, §6, §7

[26] = tested on: Chickweed; experiment: as above; settings: post-emergence, 264 h, 8 lb/acre, about 11 days
Description: as §5, §6, §7

[27] = tested on: Velvetleaf; experiment: as above; settings: Abutilon theophrasti, post-emergence, 264 h, 8 lb/acre, about 11 days
Description: as §5, §6, §7

[28] = tested on: Barnyard Grass; experiment: as above; settings: Echinochloa crus-galli, post-emergence, 264 h, 8 lb/acre, about 11 days
Description: as §5, §6, §7

[29] = tested on: Corn; experiment: as above; settings: Zea mays, post-emergence, 264 h, 8 lb/acre, about 11 days
Description: as §5, §6, §7

[30] = tested on: Yellow Rocket; experiment: as above; settings: post-emergence, 264 h, 8 lb/acre, about 11 days
Description: as §5, §6, §7

[31] = tested on: Pigweed; experiment: as above; settings: Amaranthus retroflexus, post-emergence, 264 h, 8 lb/acre, about 11 days
Description: as §5, §6, §7

[32] = tested on: Foxtail; experiment: as above; settings: Setaria, post-emergence, 264 h, 8 lb/acre, about 11 days
Description: as §5, §6, §7

[33] = tested on: Snapbeans; experiment: as above; settings: post-emergence, 264 h, 8 lb/acre, about 11 days
Description: as §5, §6, §7

[34] = tested on: Alfalfa; experiment: as above; settings: Medicago sativa, post-emergence, 264 h, 8 lb/acre, about 11 days
Description: as §5, §6, §7

SMILES | pest or weed control at 17933.6 g/ha [1] | pest or weed control at 17933.6 g/ha [2] | pest or weed control at 17933.6 g/ha [3] | pest or weed control at 17933.6 g/ha [4] | pest or weed control at 17933.6 g/ha [5] | pest or weed control at 17933.6 g/ha [6] | pest or weed control at 17933.6 g/ha [7] | pest or weed control at 17933.6 g/ha [8] | pest or weed control at 17933.6 g/ha [9] | pest or weed control at 17933.6 g/ha [10] | plant injury at 17933.6 g/ha [12] | pest or weed control at 17933.6 g/ha [13] | pest or weed control at 17933.6 g/ha [14] | pest or weed control at 17933.6 g/ha [15] | pest or weed control at 17933.6 g/ha [16] | pest or weed control at 17933.6 g/ha [17] | pest or weed control at 8966.8 g/ha [18] | pest or weed control at 8966.8 g/ha [19] | pest or weed control at 8966.8 g/ha [20] | pest or weed control at 8966.8 g/ha [21] | other results
CCCCC(CC)Cn1c(=O)[nH]c2cccnc2c1=O (centres unmarked) [3-(2-ethylhexyl)pyrido[3,2-d]pyrimidine-2,4(1H,3H)-dione] | 10% | 0% | 0% | 0% | 10% | 30% | 0% | 0% | 70% | 0% | 0% | 90% | 0% | 0% | 0% | 0% | 10% | 0% | 0% | 10% | pest or weed control at 17933.6 g/ha [11]: 0%; pest or weed control at 8966.8 g/ha [22]: 20%; pest or weed control at 8966.8 g/ha [23]: 100%; pest or weed control at 8966.8 g/ha [24]: 0%; pest or weed control at 8966.8 g/ha [25]: 0%; pest or weed control at 8966.8 g/ha [26]: 50%; pest or weed control at 8966.8 g/ha [27]: 0%; pest or weed control at 8966.8 g/ha [28]: 0%; plant injury at 8966.8 g/ha [29]: 0%; pest or weed control at 8966.8 g/ha [30]: 90%; pest or weed control at 8966.8 g/ha [31]: 100%; pest or weed control at 8966.8 g/ha [32]: 0%; pest or weed control at 8966.8 g/ha [33]: 0%; pest or weed control at 8966.8 g/ha [34]: 0%
C=CCn1c(=O)[nH]c2cccnc2c1=O [3-allyl-pyrido[3,2-d]pyrimidine-2,4(1H,3H)-dione] | 100% | 90% | 100% | 100% | 100% | 100% | 100% | 20% | 100% | 90% | 50% | 100% | 100% | 90% | 100% | 100% | 100% | 100% | 20% | 100% | pest or weed control at 17933.6 g/ha [11]: 90%; pest or weed control at 8966.8 g/ha [22]: 100%; pest or weed control at 8966.8 g/ha [23]: 100%; pest or weed control at 8966.8 g/ha [24]: 30%; pest or weed control at 8966.8 g/ha [25]: 30%; pest or weed control at 8966.8 g/ha [26]: 100%; pest or weed control at 8966.8 g/ha [27]: 100%; pest or weed control at 8966.8 g/ha [28]: 100%; plant injury at 8966.8 g/ha [29]: 30%; pest or weed control at 8966.8 g/ha [30]: 100%; pest or weed control at 8966.8 g/ha [31]: 100%; pest or weed control at 8966.8 g/ha [32]: 100%; pest or weed control at 8966.8 g/ha [33]: 100%; pest or weed control at 8966.8 g/ha [34]: 100%
O=c1[nH]c2cccnc2c(=O)n1C1CCCCCCC1 [3-cyclooctyl-pyrido[3,2-d]pyrimidine-2,4(1H,3H)-dione] | 100% | 100% | 100% | 100% | 90% | 100% | 100% | 20% | 100% | 100% | 50% | 100% | 100% | 100% | 100% | 100% | 100% | 100% | 40% | 100% | pest or weed control at 8966.8 g/ha [22]: 100%; pest or weed control at 8966.8 g/ha [23]: 100%; pest or weed control at 8966.8 g/ha [24]: 30%; pest or weed control at 8966.8 g/ha [25]: 40%; pest or weed control at 8966.8 g/ha [26]: 100%; pest or weed control at 8966.8 g/ha [27]: 100%; pest or weed control at 8966.8 g/ha [28]: 90%; plant injury at 8966.8 g/ha [29]: 0%; pest or weed control at 8966.8 g/ha [30]: 100%; pest or weed control at 8966.8 g/ha [31]: 100%; pest or weed control at 8966.8 g/ha [32]: 80%; pest or weed control at 8966.8 g/ha [33]: 90%; pest or weed control at 8966.8 g/ha [34]: 60%
